# In patent publication US20110319266A1, “HERBICIDAL COMPOSITION” (priority 2009, published 2011):
# Where “and” joins values, the source holds several entries; their conditions need not be identical. Equal entries are not always repeated. Where two headings read alike, the source gives them in different places.
# Assays:
# Type in all cases: in vivo
# Setaria viridis = assay: Test Example 1: greenhouse spray test, herbicidal effect on Setaria viridis
# Description: (§1) A plastic cup with a diameter of 8 cm and a depth of 6.5 cm was filled with soil. Seeds of wheat (Triticum aestivum) and one or more kinds of test plant selected from Alopecurus myosuroides, Lolium multiflorum, Setaria viridis, Sinapis arvensis and Stellaria media were sowed in the cup, and then grown in a greenhouse until Triticum aestivum was grown in the second to third leaf stage. Then, a test dilution containing predetermined amounts of the present compound, a compound selected from Group A and a compound selected from Group B was sprayed onto the whole plants uniformly. The test dilution was prepared by dissolving a predetermined amount of each compound in a 2% solution of Tween 20 (polyoxyethylene sorbitan fatty acid ester, MP Biomedicals, Inc.) in dimethylformamide and then diluting the solution with water, and then mixing the respective water dilutions thus obtained of the present compound, a compound selected from Group A and a compound selected from Group B. After the spray treatment, the plants were grown in a greenhouse for 21 days. The herbicidal effect was rated in 101 levels from 0 (no effect) to 100 (complete death).
# Sinapis arvensis = assay: Test Example 1: greenhouse spray test, herbicidal effect on Sinapis arvensis
# Description: as §1
# Triticum aestivum = system: Triticum aestivum
# Description: as §1, with “days.” for “days. The herbicidal effect was rated in 101 levels from 0 (no effect) to 100 (complete death).”
# Stellaria media = assay: Test Example 1: greenhouse spray test, herbicidal effect on Stellaria media
# Description: as §1, with “days.” for “days. The herbicidal effect was rated in 101 levels from 0 (no effect) to 100 (complete death).”
# Lolium multiflorum = assay: Test Example 1: greenhouse spray test, herbicidal effect on Lolium multiflorum
# Description: as §1, with “days.” for “days. The herbicidal effect was rated in 101 levels from 0 (no effect) to 100 (complete death).”
# Alopecurus myosuroides = assay: Test Example 1: greenhouse spray test, herbicidal effect on Alopecurus myosuroides
# Description: as §1
# [1] = amount of chemical 20 g/ha, 21 days after spray, scale 0 (no effect) to 100 (complete death)
# [2] = amount of chemical 200 g/ha, 21 days after spray, scale 0 (no effect) to 100 (complete death)
# [3] = Lolium multiflorum, 504 h, read-out: herbicidal effect on Lolium multiflorum
# [4] = amount of chemical 6.3 g/ha, 21 days after spray, scale 0 (no effect) to 100 (complete death)
# [5] = Lolium multiflorum, 504 h, amount of chemical 6.3 g/ha, 21 days after spray, scale 0 (no effect) to 100 (complete death), read-out: herbicidal effect on Lolium multiflorum
# [6] = amount of chemical 5 g/ha, 21 days after spray, scale 0 (no effect) to 100 (complete death)
# [7] = amount of chemical 0.1 g/ha, 21 days after spray, scale 0 (no effect) to 100 (complete death)
# [8] = amount of chemical 0.2 g/ha, 21 days after spray, scale 0 (no effect) to 100 (complete death)
# [9] = amount of chemical 25 g/ha, 21 days after spray, scale 0 (no effect) to 100 (complete death)
# [10] = amount of chemical 3.1 g/ha, 21 days after spray, scale 0 (no effect) to 100 (complete death)
# [11] = amount of chemical 0.25 g/ha, 21 days after spray, scale 0 (no effect) to 100 (complete death)
structure (smiles),measurement,setting,value
"O=C(O)COc1ccc(Cl)cc1Cl [2,4-D]",herbicidal effect on Setaria viridis,Setaria viridis; amount of chemical 25 g/ha,0
same,herbicidal effect on Sinapis arvensis,Sinapis arvensis; amount of chemical 25 g/ha,80
same,herbicidal effect on Triticum aestivum,Triticum aestivum; amount of chemical 25 g/ha,0
"N#Cc1cc(Br)c(O)c(Br)c1 [Bromoxynil, bromoxynil]",herbicidal effect on Stellaria media,Stellaria media; [1],0
same,herbicidal effect on Stellaria media,Stellaria media; [2],10
same,herbicidal effect on Triticum aestivum,Triticum aestivum; [1],0
same,herbicidal effect on Triticum aestivum,Triticum aestivum; [2],5
same,pest or weed control at 20 g/ha,Lolium multiflorum; [3],0%
same,pest or weed control at 200 g/ha,Lolium multiflorum; [3],0%
COc1nc(C)nc(NC(=O)NS(=O)(=O)c2ccccc2Cl)n1 [Chlorsulfuron],herbicidal effect on Alopecurus myosuroides,Alopecurus myosuroides; amount of chemical 1 g/ha,0
O=C(O)c1nc(Cl)ccc1Cl [Clopyralid],herbicidal effect on Alopecurus myosuroides,Alopecurus myosuroides; amount of chemical 100 g/ha,0
same,herbicidal effect on Triticum aestivum,Triticum aestivum; amount of chemical 100 g/ha,0
"CCCCCC(C)OC(=O)COc1ccc(Cl)c2cccnc12 (stereo not drawn) [Cloquintocet-mexyl, cloquintocet-mexyl]",herbicidal effect on Stellaria media,Stellaria media; [4],0
same,herbicidal effect on Alopecurus myosuroides,Alopecurus myosuroides; amount of chemical 6.3 g/ha,0
same,herbicidal effect on Alopecurus myosuroides,Alopecurus myosuroides; [4],0
same,herbicidal effect on Sinapis arvensis,Sinapis arvensis; [4],0
same,pest or weed control at 6.3 g/ha,Lolium multiflorum; [5],0%
COc1c(Cl)ccc(Cl)c1C(=O)O [Dicamba],pest or weed control at 50 g/ha,"Lolium multiflorum; Lolium multiflorum, 504 h, amount of chemical 50 g/ha",0%
"CCOC(=O)c1nc(C(Cl)(Cl)Cl)n(-c2ccc(Cl)cc2Cl)n1 [Fenchlorazole-ethyl, fenchlorazole-ethyl]",herbicidal effect on Setaria viridis,Setaria viridis; amount of chemical 6.3 g/ha,0
same,herbicidal effect on Sinapis arvensis,Sinapis arvensis; [6],0
same,herbicidal effect on Sinapis arvensis,Sinapis arvensis; amount of chemical 6.3 g/ha,0
same,pest or weed control at 5 g/ha,"Lolium multiflorum; Lolium multiflorum, 504 h, amount of chemical 5 g/ha, 21 days after spray, scale 0 (no effect) to 100 (complete death)",0%
same,pest or weed control at 6.3 g/ha,Lolium multiflorum; [5],0%
"COc1ncc(F)c2nc(S(=O)(=O)Nc3c(F)cccc3F)nn12 [Florasulam, florasulam]",herbicidal effect on Triticum aestivum,Triticum aestivum; amount of chemical 0.1 g/ha,0
same,herbicidal effect on Triticum aestivum,Triticum aestivum; [7],0
same,herbicidal effect on Triticum aestivum,Triticum aestivum; [8],0
same,herbicidal effect on Lolium multiflorum,Lolium multiflorum; amount of chemical 0.1 g/ha,0
same,herbicidal effect on Lolium multiflorum,Lolium multiflorum; [7],0
same,herbicidal effect on Lolium multiflorum,Lolium multiflorum; [8],0
Nc1c(Cl)c(F)nc(OCC(=O)O)c1Cl [Fluroxypyr],herbicidal effect on Stellaria media,Stellaria media; [9],40
same,herbicidal effect on Alopecurus myosuroides,Alopecurus myosuroides; [9],0
same,herbicidal effect on Triticum aestivum,Triticum aestivum; [9],0
"CCc1cc(C)cc(CC)c1-c1c(O)c(C)nn(C)c1=O [I-a-14, 4-(2,6-diethyl-4-methylphenyl)-5-hydroxy-2,6-dimethyl-3(2H)-pyridazinone]",herbicidal effect on Stellaria media,Stellaria media; [9],50
same,herbicidal effect on Alopecurus myosuroides,Alopecurus myosuroides; [9],90
same,herbicidal effect on Sinapis arvensis,Sinapis arvensis; [9],60
same,pest or weed control at 25 g/ha,"Lolium multiflorum; Lolium multiflorum, 504 h, amount of chemical 25 g/ha, 21 days after spray, scale 0 (no effect) to 100 (complete death)",90%
CCc1cc(CC)c(-c2c(O)c(C)nn(C)c2=O)c(CC)c1 [I-a-17],herbicidal effect on Sinapis arvensis,Sinapis arvensis; [6],30
same,herbicidal effect on Triticum aestivum,Triticum aestivum; [6],5
same,herbicidal effect on Lolium multiflorum,Lolium multiflorum; [6],10
CCc1cc(C)cc(C)c1-c1c(O)c(C)nn(C)c1=O [I-a-18],herbicidal effect on Stellaria media,Stellaria media; [4],5
same,herbicidal effect on Triticum aestivum,Triticum aestivum; [4],5
same,herbicidal effect on Lolium multiflorum,Lolium multiflorum; [4],60
CCc1cc(C)cc(CC)c1-c1c(OC(C)=O)c(C)nn(C)c1=O [I-b-14],herbicidal effect on Triticum aestivum,Triticum aestivum; [4],5
same,herbicidal effect on Lolium multiflorum,Lolium multiflorum; [4],70
CCOC(=O)Oc1c(C)nn(C)c(=O)c1-c1c(CC)cc(C)cc1CC [I-b-18],herbicidal effect on Stellaria media,Stellaria media; amount of chemical 25 g/ha,5
same,herbicidal effect on Triticum aestivum,Triticum aestivum; amount of chemical 25 g/ha,10
same,herbicidal effect on Triticum aestivum,Triticum aestivum; [9],10
same,herbicidal effect on Lolium multiflorum,Lolium multiflorum; amount of chemical 25 g/ha,30
same,herbicidal effect on Lolium multiflorum,Lolium multiflorum; [9],30
CCc1cc(C)cc(CC)c1-c1c(OC(=O)OC)c(C)nn(C)c1=O [I-b-25],herbicidal effect on Setaria viridis,Setaria viridis; amount of chemical 25 g/ha,95
same,herbicidal effect on Sinapis arvensis,Sinapis arvensis; amount of chemical 25 g/ha,20
same,herbicidal effect on Triticum aestivum,Triticum aestivum; amount of chemical 25 g/ha,5
CCOC(=O)Oc1c(C)nn(C)c(=O)c1-c1c(C)cc(C)cc1CC [I-b-35],herbicidal effect on Alopecurus myosuroides,Alopecurus myosuroides; amount of chemical 25 g/ha,50
same,herbicidal effect on Triticum aestivum,Triticum aestivum; amount of chemical 25 g/ha,10
CCc1cc(CC)c(-c2c(OC(=O)OC)c(C)nn(C)c2=O)c(CC)c1 [I-b-36],herbicidal effect on Alopecurus myosuroides,Alopecurus myosuroides; amount of chemical 25 g/ha,50
same,herbicidal effect on Triticum aestivum,Triticum aestivum; amount of chemical 25 g/ha,10
"CCOC(=O)C1=NN(c2ccc(Cl)cc2Cl)C(C)(C(=O)OCC)C1 (stereo not drawn) [Mefenpyr-diethyl, mefenpyr-diethyl]",herbicidal effect on Stellaria media,Stellaria media; [10],0
same,herbicidal effect on Stellaria media,Stellaria media; amount of chemical 6.3 g/ha,0
same,herbicidal effect on Stellaria media,Stellaria media; [4],0
same,herbicidal effect on Triticum aestivum,Triticum aestivum; [10],0
same,herbicidal effect on Triticum aestivum,Triticum aestivum; amount of chemical 6.3 g/ha,0
same,herbicidal effect on Triticum aestivum,Triticum aestivum; [4],0
same,pest or weed control at 3.1 g/ha,Lolium multiflorum; [3],0%
same,pest or weed control at 6.3 g/ha,Lolium multiflorum; [3],0%
same,herbicidal effect on Lolium multiflorum,Lolium multiflorum; amount of chemical 6.3 g/ha,0
"COC(=O)c1ccccc1S(=O)(=O)NC(=O)Nc1nc(C)nc(OC)n1 [Metsulfuron-methyl, metsulfuron-methyl]",herbicidal effect on Sinapis arvensis,Sinapis arvensis; [7],70
same,herbicidal effect on Triticum aestivum,Triticum aestivum; [7],0
same,pest or weed control at 0.1 g/ha,"Lolium multiflorum; Lolium multiflorum, 504 h, amount of chemical 0.1 g/ha, 21 days after spray, scale 0 (no effect) to 100 (complete death)",0%
"Cc1nn(C)c(O)c1C(=O)c1ccc(C(F)(F)F)cc1S(C)(=O)=O [Pyrasulfotole, pyrasulfotole]",herbicidal effect on Sinapis arvensis,Sinapis arvensis; [1],70
same,herbicidal effect on Triticum aestivum,Triticum aestivum; [1],15
same,herbicidal effect on Lolium multiflorum,Lolium multiflorum; [1],0
"COC(=O)c1sccc1S(=O)(=O)NC(=O)Nc1nc(C)nc(OC)n1 [Thifensulfuron-methyl, thifensulfuron-methyl]",herbicidal effect on Stellaria media,Stellaria media; amount of chemical 1 g/ha,50
"COC(=O)c1ccccc1S(=O)(=O)NC(=O)N(C)c1nc(C)nc(OC)n1 [Tribenuron-methyl, tribenuron-methyl]",herbicidal effect on Stellaria media,Stellaria media; [11],90 and 80
same,herbicidal effect on Triticum aestivum,Triticum aestivum; [11],0
same,pest or weed control at 0.25 g/ha,"Lolium multiflorum; Lolium multiflorum, 504 h, amount of chemical 0.25 g/ha, 21 days after spray, scale 0 (no effect) to 100 (complete death)",0%
